{"source": "patent US6107324A", "about": "“5-HT2A receptor inverse agonists” (priority 1999, dated 2000)", "key": {"[1]": {"target": "T1, constitutively active mutant human 5HT2C receptor AP-1 (Homo sapiens, UniProt P28335, S310K)", "T1 sequence (P28335 33-458 S310K)": "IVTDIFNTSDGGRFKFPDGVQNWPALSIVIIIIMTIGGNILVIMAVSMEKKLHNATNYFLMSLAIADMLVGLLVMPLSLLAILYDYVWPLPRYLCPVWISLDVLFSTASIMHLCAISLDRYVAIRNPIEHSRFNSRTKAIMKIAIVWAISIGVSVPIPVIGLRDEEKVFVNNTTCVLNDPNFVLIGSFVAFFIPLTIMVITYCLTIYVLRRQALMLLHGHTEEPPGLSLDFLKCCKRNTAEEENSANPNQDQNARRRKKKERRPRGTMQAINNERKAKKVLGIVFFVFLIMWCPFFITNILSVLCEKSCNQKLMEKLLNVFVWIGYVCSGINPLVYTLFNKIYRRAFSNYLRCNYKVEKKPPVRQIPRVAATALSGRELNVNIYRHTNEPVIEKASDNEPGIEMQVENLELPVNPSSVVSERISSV", "assay": "[35S]GTPγS binding assay, constitutively active mutant human 5HT2C receptor AP-1", "type": "biochemical"}, "[2]": {"tested_on": "5HT2A receptor (cerebral cortex)", "assay": "I125-LSD displacement from rat brain sections, cerebral cortex (5HT2A)", "type": "binding, Sprague-Dawley rats", "conditions": "1 micromolar compound, 1 nanomolar I125-LSD, 30 minutes room temperature"}, "[3]": {"tested_on": "human mutated 5HT2A receptor, AP-3", "assay": "Inositol phosphate (IP3) accumulation assay, AP-3", "type": "cell-based", "conditions": "preferred compounds tables (μM)"}, "[4]": {"tested_on": "Adult male Sprague-Dawley rats", "assay": "Amphetamine-stimulated locomotor activity in rats", "type": "in vivo", "from_the_text": "A 5HT2A receptor antagonist or inverse agonist is expected to decrease amphetamine-stimulated locomotion without affecting baseline locomotion. See, for example, Soresnon, et al, 266(2) J. Pharmacol. Exp. Ther. 684 (1993). […] For the following study, the following parameters and protocol were utilized:\nAdult male Sprague-Dawley rats were utilized for these studies. Animals were housed in groups of 2-3 in hanging plastic cages with food and water available at all times. Animals were weighed and handled for at least one day prior to surgery and throughout the studies. For these studies, Vehicle consisted of 90% ethanol (100%) and 10% water.\nA San Diego Instruments Flex Field apparatus was used to quantify baseline and amphetamine-stimulated locomotor activity. This apparatus consists of four 16\"×16\" clear plastic open fields. Photocell arrays (16 in each dimension) interfaced with a personal computer to automatically quantify activity. Several measures of activity can be assessed with the apparatus, including total photocell beam breaks. Animals (vehicle control and Compound treated) were injected s.c. 30 minutes prior to initiation of analysis. Following this 30 minute period, animals were placed individually into an open field and baseline activity was assessed for 30 minutes (habituation phase). […]"}, "[5]": {"target": "T2, Wild Type Human 5HT2A Receptor (Homo sapiens, UniProt P28223)", "T2 construct": "expressed in transfected cells; host or cells: COS-7 cells, transient transfection (pCMV); membranes", "T2 sequence (P28223 whole entry T25N/H452Y)": "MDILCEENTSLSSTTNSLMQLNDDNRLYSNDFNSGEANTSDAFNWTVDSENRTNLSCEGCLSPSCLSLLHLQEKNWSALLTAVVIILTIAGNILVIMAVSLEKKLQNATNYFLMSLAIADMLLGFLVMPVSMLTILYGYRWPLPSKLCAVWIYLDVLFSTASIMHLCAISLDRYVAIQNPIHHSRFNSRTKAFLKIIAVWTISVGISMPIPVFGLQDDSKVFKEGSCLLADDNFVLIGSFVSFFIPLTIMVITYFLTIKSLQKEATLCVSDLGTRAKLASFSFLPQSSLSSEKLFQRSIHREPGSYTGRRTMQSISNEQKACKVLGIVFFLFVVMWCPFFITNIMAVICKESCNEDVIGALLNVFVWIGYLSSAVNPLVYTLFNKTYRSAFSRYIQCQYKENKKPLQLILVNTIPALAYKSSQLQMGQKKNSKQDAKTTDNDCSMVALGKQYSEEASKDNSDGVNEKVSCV", "assay": "[3H]LSD competitive binding assay, wild type 5HT2A"}, "[6]": {"target": "T3, endogenous human 5-HT2C receptor (Homo sapiens, UniProt P28335)", "T3 sequence (P28335 33-458)": "T1 sequence (P28335 33-458 S310K) with K278S"}}, "note": "Where a chain is given by its changes, count along the chain named. Where two headings read alike, the source gives them in different places."}
{"smiles": "Cn1cc(Br)c(-c2cccc(NC(=O)Nc3ccc(OC(F)(F)F)cc3)c2)n1", "note": "[Compound 103487, N-[3-(4-bromo-1-methylpyrazol-3-yl)phenyl][{(4-trifluoromethoxy)phenyl}amino]carboxamide]", "values": [{"measurement": "inhibition at 10 µM", "setting": "[1]; read-out: GTPγS AP-1 Percent Inhibition Relative To Positive Control (Primary)", "value": -1, "unit": "%"}, {"measurement": "inhibition at 10 µM", "setting": "[1]; read-out: GTPγS AP-1 Percent Inhibition Relative To Positive Control (Reconfirm)", "value": 31, "unit": "%"}]}
{"smiles": "COc1ccc(OC(=O)Nc2cccc(-c3nn(C)cc3Br)c2)cc1", "note": "[Compound 116100, N-[3-(4-bromo-1-methylpyrazol-3-yl)phenyl][4-methoxyphenoxy]carboxamide]", "values": [{"measurement": "displacement of I125-LSD from cortex", "setting": "[2]", "value": "selectively displace the I^125 -LSD from the cortex (5HT2A)"}, {"measurement": "IC50", "setting": "[3]", "value": 0.0003, "unit": "µM"}]}
{"smiles": "Cn1cc(Br)c(-c2cccc(NC(=O)c3cccs3)c2)n1", "note": "[Compound 116102, N-[3-(4-bromo-1-methylpyrazol-3-yl)phenyl][2-thienyl]carboxamide]", "values": [{"measurement": "amphetamine-stimulated locomotion", "setting": "[4]; s.c., 0.1, 1.0, 5.0, 10.0 mg/kg, d-amphetamine sulfate 1.0 mg/kg, photobeam breaks", "value": "with exception of the highest dose (10 mg/kg), in vivo, the tested doses of Compound 116102 evidenced a decrease in the amphetamine-stimulated locomotion"}, {"measurement": "dose-response pattern of locomotor activity", "setting": "[4]; s.c., 0.1-10.0 mg/kg, FIGS. 17A-C", "value": "\"inverted U\" shaped pattern"}]}
{"smiles": "CC(C)c1ccc(NC(=O)Nc2cccc(-c3nn(C)cc3Br)c2)cc1", "note": "[Compound 116110, {[3-(4-bromo-1-methylpyrazol-3-yl)phenyl]amino}-N-[4-(methylethyl)phenyl]carboxamide]", "values": [{"measurement": "IC50", "setting": "[5]", "value": 0.338, "unit": "µM"}]}
{"smiles": "Cn1cc(Br)c(-c2cccc(NC(=O)OC(C)(C)C)c2)n1", "note": "[Compound 116192]", "values": [{"measurement": "IC50", "setting": "[3]", "value": 0.057, "unit": "µM"}]}
{"smiles": "CSc1ccc2c(c1)C(N1CCN(C)CC1)Cc1ccccc1S2", "note": "(stereo not shown) [Methiothepin]", "values": [{"measurement": "IC50", "setting": "[1]", "value": 0.0204, "unit": "µM"}]}
{"smiles": "Clc1ccc2c(c1)N=C(N1CCNCC1)c1ccccc1N2", "note": "[Normethylclozapin]", "values": [{"measurement": "IC50", "setting": "[1]", "value": 0.0214, "unit": "µM"}]}
{"smiles": "CN1CCN2c3ccccc3Cc3ccccc3C2C1", "note": "(stereo not shown) [mianserin]", "values": [{"measurement": "inhibition of serotonin-stimulated [35S]GTPγS binding", "setting": "[6]; 30 μM (FIG. 9), FIG. 10 on Wallac scintistrips", "value": "inhibits this response"}, {"measurement": "effect on basal constitutive [35S]GTPγS binding", "setting": "[6]; FIG. 10, membranes expressing endogenous human 5-HT2C receptor", "value": "partial inverse agonist"}, {"measurement": "[35S]GTPγS binding, serotonin stimulation and inhibition by mianserin", "setting": "[1]; FIG. 10, AP-1 receptors in 293T cells, mianserin 30 μM, Wallac scintistrips", "value": "inhibition"}]}
